Experimental data from patent publication US20250206738A1, “WRN INHIBITORS” (Nimbus Wadjet, Inc., priority 2023, published 2025).
Where two headings read alike, the source gives them in different places.

Columns and labels:
[1] = target: T1, human Werner helicase (WRN, Uniprot Q14191, amino acids 517-1235 with L1074F point mutation; WRN-BV08) (Homo sapiens, UniProt Q14191, L1074F); experiment: WRN (BV08) ADP-Glo assay; format: biochemical; details: WRN-BV08 (aa 517-1235, L1074F); read-out: ADP-Glo_hWRN_IC50
T1 construct: Uniprot Q14191, amino acids 517-1235 with L1074F point mutation; 8xHis (C, cleaved yes); TEV cleavage site (ENLYFQG) (C, cleaved yes); made in house; host or cells: Sf9 insect cells (baculovirus, pFastBac)
Method in brief: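 ADP formed by untagged WRN helicase fragment (aa 517-1235, L1074F; 0.15 nM final) on 0.1 nM DNA duplex with […], 60 min at 25 °C after 15 min compound preincubation, pH 7.5 Bicine buffer. Luminescent ADP-Glo readout; IC50 from 4-parameter fit of % inhibition.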

[2] = test system: p21 induction in HCT 116 cells; experiment: p21 induction in cells (In-Cell Western, p21/GAPDH ratio); format: cell-based; details: 24 h compound incubation, read-out: P21_EC50
Description: Example 3: Method for Determining Effect on p21 Induction in Cells
The colon carcinoma cell line HCT 116 was obtained from ATCC and cultured in growth medium consisting of Mccoy's 5A Medium (Gibco 16600108) supplemented with 10% FBS (Transgene FS201-02) and 100 units/mL penicillin-streptomycin (Gibco 15140122) and maintained at 37° C. under 5% CO2. On the day of seeding, 2,000 cells in 30 μL of culture media were plated per well to Poly-D-Lysine 384 Well Black Clear Plates (Biocoat 356663) and incubated overnight at 37° C. under 5% CO2. The following day, compounds were serially diluted in DMSO for a total of 11 test concentrations. The typical starting concentration of compounds was 10 μM with 2-fold dilutions. Next, 150 nL of diluted compound was added in duplicate to the assay plate, using an Echo 655 (Labcyte). The plate was centrifuged at 500 RPM for 1 min and then incubated at 37° C. under 5% CO2 for 24 h. After 24h, medium was removed, and cells were fixed by adding 40 μL of 4% paraformaldehyde solution to each well and incubated for 20 min at room temperature. The plate was then washed 4 times with 100 μL per well of wash buffer (PBS with 0.1% Tween-20) using a microplate washer. Next, 30 μL of ice-cold methanol was added to each well and the plate was incubated at −20° C. for 10 min. The plate was washed 4 times with 100 μL per well of wash buffer by a microplate washer, then 30 μL per well of blocking buffer (Intercept PBS blocking buffer (LI-COR 927-70001) with 0.05% Tween-20) was added and the plate was incubated at room temperature with shaking for 2h. Next, to each test well, 20 μL of primary antibody solution (p21 Waf1/CIP (12D1) RabbitmAb (Cell Signaling Technologies 2947) diluted 1:1000 and GAPDH (D4C6R) Mouse mAb (Cell Signaling Technologies 97166) diluted 1:2000 in blocking buffer) was added and the plate was placed at 4° C., overnight. The following day, the plate was washed 5 times with 100 μL per well of wash buffer using a microplate washer for 5 min. 20 μL per well of secondary antibody (IRDye 680CW Goat anti-Mouse IgG (H+L) (LI-COR 926-68070) diluted 1: 2000 in Blocking Buffer and IRDye 800CW Goat anti-Rabbit IgG (H+L) (LI-COR 926-32211) diluted 1: 2000 in Blocking Buffer) was then added and the plate was stored for 2h in the dark at room temperature with shaking. The plate was then washed 4 times with 100 μL per well of wash buffer again using a microplate washer. Finally, the p21 signal and the GAPDH signal were quantified using a LI-COR Odyssey CLx Imager machine reading at 800 nm and 700 nm, respectively. Each plate contained DMSO control (low control) and an internal reference WRN inhibitor (high control) respectively. For quantitation, the 800 nm/700 nm ratio was calculated for each well to give fold p21 induction and then percent activation for each compound well was calculated as follows (100×(ratio cpd well−ratio low control)/(ratio high control−ratio low control)). EC50 values for each compound were generated after non-linear regression curve fitting using commercially available software.

T1 sequence (Q14191 with tags, fused parts or gaps L1074F): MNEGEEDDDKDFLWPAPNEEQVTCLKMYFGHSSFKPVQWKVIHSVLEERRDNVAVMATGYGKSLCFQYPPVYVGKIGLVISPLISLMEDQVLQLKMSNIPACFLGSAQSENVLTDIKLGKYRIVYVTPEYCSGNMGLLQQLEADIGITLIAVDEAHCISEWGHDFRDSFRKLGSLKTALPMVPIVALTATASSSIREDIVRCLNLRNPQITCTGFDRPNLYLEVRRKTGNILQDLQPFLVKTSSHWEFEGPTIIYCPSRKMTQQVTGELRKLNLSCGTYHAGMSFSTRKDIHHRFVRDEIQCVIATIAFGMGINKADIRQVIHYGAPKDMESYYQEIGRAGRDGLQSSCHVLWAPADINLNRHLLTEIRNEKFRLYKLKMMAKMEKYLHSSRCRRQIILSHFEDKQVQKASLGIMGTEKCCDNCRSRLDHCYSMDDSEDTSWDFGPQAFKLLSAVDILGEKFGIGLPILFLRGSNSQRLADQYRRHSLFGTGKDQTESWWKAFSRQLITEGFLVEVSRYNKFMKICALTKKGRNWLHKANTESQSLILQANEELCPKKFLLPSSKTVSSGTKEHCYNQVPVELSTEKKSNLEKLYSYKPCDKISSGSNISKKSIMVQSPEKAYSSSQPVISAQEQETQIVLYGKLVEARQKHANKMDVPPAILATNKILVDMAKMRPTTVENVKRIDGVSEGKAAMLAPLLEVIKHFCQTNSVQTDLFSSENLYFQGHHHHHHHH

Structure (SMILES) | IC50 [1] [nM] | EC50 ([2]; Homo sapiens, HCT-116, 24 h) [nM] | EC50 [2] [nM]
CCc1c(N2CCN(C(=O)c3ncnc(C)c3O)[C@H]3CC[C@@H]32)c(=O)c2nn(C3=CCOC(C)C3)nc2n1CC(=O)NC12CC(C3CC3)(C1)C2 (single isomer, unassigned) [I-169] | 5 to 50 | ≤ 500 | 
CCc1c(N2CCN(C(=O)c3ncnc(C)c3O)[C@H]3CC[C@@H]32)c(=O)c2nn(C3=CCOC(C)C3)nc2n1CC(=O)NC12CC(C3CC3)(C1)C2 (single isomer, unassigned) [I-170] | 5 to 50 |  | ≤ 500
CCc1c(N2CCN(C(=O)c3ncnc(C)c3O)CC2)c(=O)c2nc(N(C)C)cnc2n1CC(=O)NC12CC(C(F)(F)F)(C1)C2 [I-1, 2-(2-(dimethylamino)-6-ethyl-7-(4-(5-hydroxy-6-methylpyrimidine-4-carbonyl)piperazin-1-yl)-8-oxopyrido[2,3-b]pyrazin-5(8H)-yl)-N-(3-(trifluoromethyl)bicyclo[1.1.1]pentan-1-yl)acetamide] | 100 to 500 | > 5000 | 
CCc1c(N2CCN(C(=O)c3ncnc(C)c3O)CC2)c(=O)c2nc3cc(C)sc3nc2n1CC(=O)NC12CC(C(F)(F)F)(C1)C2 [I-3, 2-(7-ethyl-6-(4-(5-hydroxy-6-methylpyrimidine-4-carbonyl)piperazin-1-yl)-2-methyl-5-oxopyrido[2,3-b]thieno[3,2-e]pyrazin-8(5H)-yl)-N-(3-(trifluoromethyl)bicyclo[1.1.1]pentan-1-yl)acetamide] | 5 to 50 | > 5000 | 
CCc1c(N2CCN(C(=O)c3ncnc(C)c3O)CC2)c(=O)n2nc(-c3ccnc(OC)c3)nc2n1CC(=O)NC12CC(C(F)(F)F)(C1)C2 [I-4, 2-(5-ethyl-6-(4-(5-hydroxy-6-methylpyrimidine-4-carbonyl)piperazin-1-yl)-2-(2-methoxypyridin-4-yl)-7-oxo-[1,2,4]triazolo[1,5-a]pyrimidin-4(7H)-yl)-N-(3-(trifluoromethyl)bicyclo[1.1.1]pentan-1-yl)acetamide] | 5 to 50 | 2000 to 5000 | 
CCc1c(N2CCN(C(=O)c3ncc4c(c3O)CCO4)CC2)c(=O)n2nc(C3=CCOCC3)nc2n1CC(=O)NC12CC(C(C)(F)F)(C1)C2 [I-7, N-(3-(1,1-difluoroethyl)bicyclo[1.1.1]pentan-1-yl)-2-(2-(3,6-dihydro-2H-pyran-4-yl)-5-ethyl-6-(4-(4-hydroxy-2,3-dihydrofuro[2,3-c]pyridine-5-carbonyl)piperazin-1-yl)-7-oxo-[1,2,4]triazolo[1,5-a]pyrimidin-4(7H)-yl)acetamide] | 5 to 50 | 2000 to 5000 | 
CCc1c(N2CCN(C(=O)c3ncc4c(c3O)CCO4)CC2)c(=O)n2nc(C3=CCOCC3)nc2n1CC(=O)NC12CC(C3CC3)(C1)C2 [I-9, N-(3-cyclopropylbicyclo[1.1.1]pentan-1-yl)-2-(2-(3,6-dihydro-2H-pyran-4-yl)-5-ethyl-6-(4-(4-hydroxy-2,3-dihydrofuro[2,3-c]pyridine-5-carbonyl)piperazin-1-yl)-7-oxo-[1,2,4]triazolo[1,5-a]pyrimidin-4(7H)-yl)acetamide] | 5 to 50 | 500 to 2000 | 
CCc1c(N2CCN(C(=O)c3c(O)ccc4ncoc34)CC2)c(=O)n2nc(-c3ccnc(OC)c3)nc2n1CC(=O)NC12CC(C(F)(F)F)(C1)C2 [I-10, 2-(5-ethyl-6-(4-(6-hydroxybenzo[d]oxazole-7-carbonyl)piperazin-1-yl)-2-(2-methoxypyridin-4-yl)-7-oxo-[1,2,4]triazolo[1,5-a]pyrimidin-4(7H)-yl)-N-(3-(trifluoromethyl)bicyclo[1.1.1]pentan-1-yl)acetamide] | 5 to 50 | ≤ 500 | 
CCc1c(N2CCN(C(=O)c3ncc4c(c3O)CCO4)CC2)c(=O)n2nc(C3=CCN(C(C)=O)CC3)nc2n1CC(=O)NC12CC(C(F)(F)F)(C1)C2 [I-11, 2-(2-(1-acetyl-1,2,3,6-tetrahydropyridin-4-yl)-5-ethyl-6-(4-(4-hydroxy-2,3-dihydrofuro[2,3-c]pyridine-5-carbonyl)piperazin-1-yl)-7-oxo-[1,2,4]triazolo[1,5-a]pyrimidin-4(7H)-yl)-N-(3-(trifluoromethyl)bicyclo[1.1.1]pentan-1-yl)acetamide] | 5 to 50 | 2000 to 5000 | 
CCc1c(N2CCN(C(=O)c3ncnc(C)c3O)CC2)c(=O)n2nc(-c3ccnc(OC)c3)nc2n1CCC(=O)NC12CC(C(F)(F)F)(C1)C2 [I-13, 3-(5-ethyl-6-(4-(5-hydroxy-6-methylpyrimidine-4-carbonyl)piperazin-1-yl)-2-(2-methoxypyridin-4-yl)-7-oxo-[1,2,4]triazolo[1,5-a]pyrimidin-4(7H)-yl)-N-(3-(trifluoromethyl)bicyclo[1.1.1]pentan-1-yl)propanamide] | > 500 | > 5000 | 
CCc1c(N2CCN(C(=O)c3ncc4c(c3O)CCO4)CC2)c(=O)n2nc(C3=CCOCC3)nc2n1CC(=O)NC12CC(CC)(C1)C2 [I-14, 2-(2-(3,6-dihydro-2H-pyran-4-yl)-5-ethyl-6-(4-(4-hydroxy-2,3-dihydrofuro[2,3-c]pyridine-5-carbonyl)piperazin-1-yl)-7-oxo-[1,2,4]triazolo[1,5-a]pyrimidin-4(7H)-yl)-N-(3-ethylbicyclo[1.1.1]pentan-1-yl)acetamide] | 5 to 50 | 500 to 2000 | 
CCc1c(N2CCN(C(=O)c3ncc4c(c3O)CCO4)CC2)c(=O)n2nc(C3=CCOCC3)nc2n1CC(=O)NC12CC(C(C)C)(C1)C2 [I-15, 2-(2-(3,6-dihydro-2H-pyran-4-yl)-5-ethyl-6-(4-(4-hydroxy-2,3-dihydrofuro[2,3-c]pyridine-5-carbonyl)piperazin-1-yl)-7-oxo-[1,2,4]triazolo[1,5-a]pyrimidin-4(7H)-yl)-N-(3-isopropylbicyclo[1.1.1]pentan-1-yl)acetamide] | 5 to 50 | 500 to 2000 | 
CCc1c(N2CCN(C(=O)c3ncnc(C)c3O)CC2)c(=O)c2nc(-c3ccnc(OC)c3)oc2n1CC(=O)NC12CC(C(F)(F)F)(C1)C2 [I-16, 2-(5-ethyl-6-(4-(5-hydroxy-6-methylpyrimidine-4-carbonyl)piperazin-1-yl)-2-(2-methoxypyridin-4-yl)-7-oxooxazolo[5,4-b]pyridin-4(7H)-yl)-N-(3-(trifluoromethyl)bicyclo[1.1.1]pentan-1-yl)acetamide] | 5 to 50 | > 5000 | 
CCc1c(N2CCN(C(=O)c3ncnc(C)c3O)CC2)c(=O)c2oc(-c3ccnc(OC)c3)nc2n1CC(=O)NC12CC(C(F)(F)F)(C1)C2 [I-17, 2-(5-ethyl-6-(4-(5-hydroxy-6-methylpyrimidine-4-carbonyl)piperazin-1-yl)-2-(2-methoxypyridin-4-yl)-7-oxooxazolo[4,5-b]pyridin-4(7H)-yl)-N-(3-(trifluoromethyl)bicyclo[1.1.1]pentan-1-yl)acetamide] | 5 to 50 | 2000 to 5000 | 
CCc1c(N2CCN(C(=O)c3ncnc(C)c3O)CC2)c(=O)n2nc(C3=CCN(C(=O)COC)CC3)nc2n1CC(=O)NC12CC(C3CC3)(C1)C2 [I-18, N-(3-cyclopropylbicyclo[1.1.1]pentan-1-yl)-2-(5-ethyl-6-(4-(5-hydroxy-6-methylpyrimidine-4-carbonyl)piperazin-1-yl)-2-(1-(2-methoxyacetyl)-1,2,3,6-tetrahydropyridin-4-yl)-7-oxo-[1,2,4]triazolo[1,5-a]pyrimidin-4(7H)-yl)acetamide] | 5 to 50 | > 5000 | 
